Test results reported in ChEMBL document CHEMBL5608247, “Development of a First-in-Class DNMT1/HDAC Inhibitor with Improved Therapeutic Potential and Potentiated Antitumor Immunity” (J Med Chem, 2024).
Calls of active or inactive are those of the source. No cut-off for these calls is given here.

Experiments:
MV4-11 [1] = experiment: Antiproliferative activity against human MV4-11 cells incubated for 96 hrs by CCK8 assay; format: functional, cell-based; details: MV4-11, 96 h
MV4-11 [2] = experiment: Antitumor activity against human MV4-11 cells xenografted in BALB/c nude mouse at 45 mg/kg, ip qd treated for 19 days relative to control; format: functional; details: MV4-11, 456 h, time 19 day, read-out: TGI
[3] = Toxicity in BALB/c nude mouse xenografted with human MV4-11 cells assessed as body weight loss at 45 mg/kg, ip qd treated for 19 days; format: organism-based; details: in vivo, 456 h, time 19 day
[4] = Toxicity in BALB/c nude mouse xenografted with human MV4-11 cells assessed as animal fatality at 45 mg/kg, ip qd treated for 19 days; format: organism-based; details: in vivo, 456 h, time 19 day
[5] = molecular target: T1, DNA (cytosine-5)-methyltransferase 1 (Homo sapiens, UniProt P26358); experiment: Induction of thermal stabilization of N-terminal 6xHis-FLAG-tagged […] human DNMT1 (698 to 1616 residues) extracted from Sf9 cells assessed as change in melting temperature at 10 uM by SYPRO Orange dye based PTS assay (reference value: 0.0 degreeC); format: cell-based
T1 sequence (P26358 whole entry, the tested form may be a part): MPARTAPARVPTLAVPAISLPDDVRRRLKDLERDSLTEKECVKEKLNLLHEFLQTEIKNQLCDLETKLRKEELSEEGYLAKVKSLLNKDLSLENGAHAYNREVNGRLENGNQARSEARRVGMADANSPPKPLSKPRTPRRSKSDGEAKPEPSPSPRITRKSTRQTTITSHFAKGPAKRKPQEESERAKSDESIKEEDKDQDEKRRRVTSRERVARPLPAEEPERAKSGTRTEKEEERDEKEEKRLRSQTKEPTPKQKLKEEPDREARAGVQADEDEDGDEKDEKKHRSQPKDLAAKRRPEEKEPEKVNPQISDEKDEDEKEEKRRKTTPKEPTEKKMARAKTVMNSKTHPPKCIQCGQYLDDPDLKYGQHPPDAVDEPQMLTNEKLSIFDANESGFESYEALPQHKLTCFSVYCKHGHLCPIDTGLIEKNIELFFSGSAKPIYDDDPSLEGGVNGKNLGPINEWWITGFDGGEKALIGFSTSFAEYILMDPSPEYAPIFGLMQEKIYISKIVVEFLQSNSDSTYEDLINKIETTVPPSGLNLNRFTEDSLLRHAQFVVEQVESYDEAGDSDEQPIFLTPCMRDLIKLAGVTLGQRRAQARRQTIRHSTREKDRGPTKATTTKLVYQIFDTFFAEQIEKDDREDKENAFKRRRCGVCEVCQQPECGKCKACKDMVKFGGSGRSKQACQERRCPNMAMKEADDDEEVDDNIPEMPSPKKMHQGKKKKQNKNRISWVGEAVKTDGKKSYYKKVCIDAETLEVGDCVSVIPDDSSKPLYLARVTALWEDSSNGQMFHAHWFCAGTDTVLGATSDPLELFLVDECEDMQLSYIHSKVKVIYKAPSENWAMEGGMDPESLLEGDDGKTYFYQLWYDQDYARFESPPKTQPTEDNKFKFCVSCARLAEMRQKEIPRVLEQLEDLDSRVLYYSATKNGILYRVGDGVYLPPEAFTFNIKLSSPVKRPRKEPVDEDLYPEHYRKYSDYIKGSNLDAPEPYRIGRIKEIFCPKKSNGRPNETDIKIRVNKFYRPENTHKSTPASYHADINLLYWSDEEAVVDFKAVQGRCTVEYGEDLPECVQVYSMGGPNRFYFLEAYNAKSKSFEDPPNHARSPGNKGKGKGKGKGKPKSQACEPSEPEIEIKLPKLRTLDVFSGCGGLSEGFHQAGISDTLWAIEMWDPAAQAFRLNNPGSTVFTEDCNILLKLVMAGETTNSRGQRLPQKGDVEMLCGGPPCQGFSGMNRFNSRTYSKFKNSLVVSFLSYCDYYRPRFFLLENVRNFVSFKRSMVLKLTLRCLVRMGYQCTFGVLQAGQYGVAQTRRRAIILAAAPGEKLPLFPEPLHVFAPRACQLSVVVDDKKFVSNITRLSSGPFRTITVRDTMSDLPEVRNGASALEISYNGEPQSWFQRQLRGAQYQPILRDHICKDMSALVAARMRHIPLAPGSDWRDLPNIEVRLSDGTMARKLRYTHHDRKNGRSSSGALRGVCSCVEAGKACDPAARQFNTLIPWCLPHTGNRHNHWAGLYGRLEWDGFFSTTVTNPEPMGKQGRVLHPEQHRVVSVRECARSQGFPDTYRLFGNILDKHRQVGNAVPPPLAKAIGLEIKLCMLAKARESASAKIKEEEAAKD

[6] = molecular target: T1, DNA (cytosine-5)-methyltransferase 1; experiment: Inhibition of DNMT1 in human MV4-11 cells at 1 uM incubated for 6 hrs in presence of MG132 by Western blot analysis; format: cell-based
[7] = molecular target: T1, DNA (cytosine-5)-methyltransferase 1; experiment: Inhibition of DNMT1 in human MV4-11 cells at 1 uM incubated for 6 hrs in presence of CQ by Western blot analysis; format: cell-based
[8] = molecular target: T1, DNA (cytosine-5)-methyltransferase 1; experiment: Inhibition of DNMT1 in human MV4-11 cells at 1 uM incubated for 6 hrs in presence of Z-VAD-FMK by Western blot analysis; format: cell-based
[9] = molecular target: T1, DNA (cytosine-5)-methyltransferase 1; experiment: Inhibition of DNMT1 in human HL-60 cells at 1 uM incubated for 6 hrs in presence of MG132 by Western blot analysis; format: cell-based
[10] = molecular target: T1, DNA (cytosine-5)-methyltransferase 1; experiment: Inhibition of DNMT1 in human HL-60 cells at 1 uM incubated for 6 hrs in presence of CQ by Western blot analysis; format: cell-based
[11] = molecular target: T1, DNA (cytosine-5)-methyltransferase 1; experiment: Inhibition of DNMT1 in human HL-60 cells at 1 uM incubated for 6 hrs in presence of Z-VAD-FMK by Western blot analysis; format: cell-based
[12] = molecular target: T1, DNA (cytosine-5)-methyltransferase 1; experiment: Inhibition of DNMT1 in human MV4-11 cells assessed as ABT1 promoter methylation at 300 nM incubated for 3 days by Bisulfite Sequencing PCR analysis (reference value: 99.3 %); format: cell-based; design: scale not given: the % may be the effect or the level left; details: time 3.0 day
MV4-11 [13] = experiment: Upregulation of p57 expression in human MV4-11 cells at 100 nM incubated for 2 days in presence of SAHA by RNA-Seq analysis; format: functional, cell-based; details: time 2.0 day
MV4-11 [14] = experiment: Upregulation of BLK expression in human MV4-11 cells at 100 nM incubated for 2 days in presence of SAHA by RNA-Seq analysis; format: functional, cell-based; details: time 2.0 day
MV4-11 [15] = experiment: Upregulation of S100A16 expression in human MV4-11 cells at 100 nM incubated for 2 days in presence of SAHA by RNA-Seq analysis; format: functional, cell-based; details: time 2.0 day
[16] = molecular target: T1, DNA (cytosine-5)-methyltransferase 1; experiment: Synergistic inhibition of DNMT1 in human MV4-11 cells at 100 nM incubated for 2 days in presence of SAHA by RNA-Seq analysis; format: cell-based; details: time 2.0 day
[17] = molecular target: Histone deacetylase (Homo sapiens) (UniProt Q13547+O15379+Q9UBN7+Q92769+Q9UQL6+Q8WUI4+Q9BY41+Q96DB2+P56524+Q9UKV0+Q969S8); experiment: Inhibition of HDAC in human MV4-11 cells at 100 nM incubated for 2 days in presence of SAHA by RNA-Seq analysis; format: cell-based; details: time 2.0 day
MV4-11 [18] = experiment: Downregulation of MYC expression in human MV4-11 cells at 100 nM incubated for 2 days in presence of SAHA by RNA-Seq analysis; format: functional, cell-based; details: time 2.0 day
MV4-11 [19] = experiment: Downregulation of GPR183 expression in human MV4-11 cells at 100 nM incubated for 2 days in presence of SAHA by RNA-Seq analysis; format: functional, cell-based; details: time 2.0 day
MV4-11 [20] = experiment: Downregulation of FOXH1 expression in human MV4-11 cells at 100 nM incubated for 2 days in presence of SAHA by RNA-Seq analysis; format: functional, cell-based; details: time 2.0 day
MV4-11 [21] = experiment: Downregulation of GLIS2 expression in human MV4-11 cells at 100 nM incubated for 2 days in presence of SAHA by RNA-Seq analysis; format: functional, cell-based; details: time 2.0 day
MV4-11 [22] = experiment: Inhibition of cell viability in human MV4-11 cells incubated for 4 days in presence of SAHA by CCK8 assay; format: functional, cell-based; details: MV4-11, 96 h
HL-60 = experiment: Inhibition of cell viability in human HL-60 cells incubated for 4 days in presence of SAHA by CCK8 assay; format: functional, cell-based; details: HL-60, 96 h
Kasumi 1 = experiment: Inhibition of cell viability in human Kasumi 1 cells incubated for 4 days in presence of SAHA by CCK8 assay; format: functional, cell-based; details: Kasumi 1, 96 h
[23] = Inhibition of cell viability in human HSPC cells incubated for 4 days in presence of SAHA by CCK8 assay; format: toxicity, cell-based
MV4-11 [24] = experiment: Antitumor activity against human MV4-11 cells xenografted in BALB/c nude mouse at 30 mg/kg, ip qd for 27 days in presence of SAHA relative to control; format: functional; details: MV4-11, 648 h, time 27 day, read-out: TGI
[25] = Toxicity in BALB/c nude mouse xenografted with human MV4-11 cells assessed as body weight loss at 30 mg/kg, ip qd for 27 days in presence of SAHA; format: organism-based; details: in vivo, 648 h, time 27 day
MC-38 [26] = experiment: Upregulation of Oas2 mRNA level in mouse MC38 cells at 1 to 3 uM incubated for 3 days in presence of SAHA by qRT-PCR analysis; format: functional, cell-based; details: dose 1-3 µM, time 3.0 day
MC-38 [27] = experiment: Upregulation of Isg15 mRNA level in mouse MC38 cells at 1 to 3 uM incubated for 3 days in presence of SAHA by qRT-PCR analysis; format: functional, cell-based; details: dose 1-3 µM, time 3.0 day
MC-38 [28] = experiment: Upregulation of IAPEz mRNA level in mouse MC38 cells at 1 to 3 uM incubated for 3 days in presence of SAHA by qRT-PCR analysis; format: functional, cell-based; details: dose 1-3 µM, time 3.0 day
MC-38 [29] = experiment: Antitumor activity against mouse MC38 cells allografted in immunodeficient BALB/c nude mouse at 30 mg/kg, ip qd for 15 days in presence of SAHA relative to control; format: functional; details: MC-38, 360 h, time 15 day, read-out: TGI
[30] = Toxicity in immunodeficient BALB/c nude mouse allografted with mouse MC38 cells assessed as drug tolerance at 30 mg/kg, ip qd for 15 days in presence of SAHA; format: organism-based, MC-38; details: in vivo, 360 h, time 15 day
[31] = Toxicity in immunodeficient BALB/c nude mouse allografted with mouse MC38 cells assessed as body weight loss at 30 mg/kg, ip qd for 15 days in presence of SAHA; format: organism-based, MC-38; details: in vivo, 360 h, time 15 day
MC-38 [32] = experiment: Immunomodulatory activity in mouse MC38 cells allografted in mouse assessed as accumulation of T cells at 30 mg/kg, ip qd in presence of SAHA; format: functional, organism-based
MC-38 [33] = experiment: Immunomodulatory activity in mouse MC38 cells allografted in mouse assessed as accumulation of NKT cells at 30 mg/kg, ip qd in presence of SAHA; format: functional, organism-based
MC-38 [34] = experiment: Immunomodulatory activity in mouse MC38 cells allografted in mouse assessed as increase in IFN-gamma-positive cells at 30 mg/kg, ip qd in presence of SAHA; format: functional, organism-based
MC-38 [35] = experiment: Immunomodulatory activity in mouse MC38 cells allografted in mouse assessed as polarization of macrophages towards tumor -suppressing M1 phenotype at 30 mg/kg, ip qd in presence of SAHA; format: functional, organism-based
MC-38 [36] = experiment: Immunomodulatory activity in mouse MC38 cells allografted in mouse assessed as inhibition of pro-tumor M2 polarization at 30 mg/kg, ip qd in presence of SAHA; format: functional, organism-based

CCc1c(C#N)c(SC(C(N)=O)c2ccccc2)nc(N2CCC(N)CC2)c1C#N (stereo not drawn)
IC50 (MV4-11 [1]): > 5000 nM
inhibition in vivo at 45 mg/kg (MV4-11 [2]): 93%
Activity [3]: Toxic
Activity [4]: Toxic
ΔTm [5]: 8 °C
inhibition [6]: inactive
inhibition [7]: Active
inhibition [8]: Active
inhibition [9]: inactive
inhibition [10]: Active
inhibition [11]: Active
Activity [12]: 6.43%
Activity (MV4-11 [13]): Active
Activity (MV4-11 [14]): Active
Activity (MV4-11 [15]): Active
inhibition [16]: Active
inhibition [17]: Active
Activity (MV4-11 [18]): Active
Activity (MV4-11 [19]): Active
Activity (MV4-11 [20]): Active
Activity (MV4-11 [21]): Active
IC50 (MV4-11 [22]): 400 nM
IC50 (HL-60): 320 nM
IC50 (Kasumi 1): 380 nM
IC50 at 4 days [23]: 800 nM
inhibition in vivo at 30 mg/kg (MV4-11 [24]): 89%
Activity [25]: Toxic
Activity (MC-38 [26]): Active
Activity (MC-38 [27]): Active
Activity (MC-38 [28]): Active
inhibition in vivo at 30 mg/kg (MC-38 [29]): 24%
Activity [30]: Non-Toxic
Activity [31]: Non-Toxic
Activity (MC-38 [32]): Active
Activity (MC-38 [33]): Active
Activity (MC-38 [34]): Active
Activity (MC-38 [35]): Active
inhibition (MC-38 [36]): Active
